# Data published in PubChem BioAssay (NCI).
# Several values for one entry are separate records, joined by “and”; a condition that tells them apart may be missing. Identical values can stand only once.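 Compound exposure: 48 hours, 5 concentrations, 96-well plates. GI50 is the concentration that inhibits growth by half. TGI denotes the concentration required for complete inhibition of growth.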
# Tests used:
# Test in all cases: NCI-60 cell line screen, 48 h
# EKVX NSCLC = tested on: EKVX NSCLC
# HOP-92 NSCLC = tested on: HOP-92 NSCLC
# HL-60(TB) leukemia = tested on: HL-60(TB) leukemia
# UO-31 renal = tested on: UO-31 renal
# DU-145 prostate = tested on: DU-145 prostate
# CAKI-1 renal = tested on: CAKI-1 renal
# MCF7 breast = tested on: MCF7 breast
# CCRF-CEM leukemia = tested on: CCRF-CEM leukemia
# NCI-H522 lung = tested on: NCI-H522 lung
# UACC-257 melanoma = tested on: UACC-257 melanoma
SMILES,GI50 (EKVX NSCLC),TGI (EKVX NSCLC),GI50 (HOP-92 NSCLC),TGI (HOP-92 NSCLC),GI50 (HL-60(TB) leukemia),TGI (HL-60(TB) leukemia),GI50 (UO-31 renal),GI50 (DU-145 prostate),TGI (DU-145 prostate),GI50 (CAKI-1 renal),TGI (CAKI-1 renal),GI50 (MCF7 breast),TGI (MCF7 breast),GI50 (CCRF-CEM leukemia),TGI (CCRF-CEM leukemia),GI50 (NCI-H522 lung),TGI (NCI-H522 lung),TGI (UACC-257 melanoma),TGI (UO-31 renal),GI50 (UACC-257 melanoma)
CC(C)(C)c1cc(NC(=O)Cc2ccc(-c3cnc4cc(-c5cnn(CCN6CCOCC6)c5)ccc4n3)cc2)no1,829 nM and 459 nM and 144 nM,50000 nM and > 100000 nM and > 3000 nM,194 nM and 91.3 nM,2920 nM and > 3000 nM,225 nM and 546 nM and 158 nM,50000 nM and > 100000 nM and > 3000 nM,135 nM and 88.3 nM,432 nM and 494 nM and 75.7 nM,50000 nM and > 100000 nM and > 3000 nM,123 nM and 219 nM and 25.3 nM,50000 nM and > 100000 nM and > 3000 nM,301 nM and 806 nM and 194 nM,50000 nM and > 100000 nM and > 3000 nM,163 nM and 388 nM and 107 nM,22800 nM and > 100000 nM and > 3000 nM,298 nM and 465 nM and 96.2 nM,50000 nM and > 100000 nM and > 3000 nM,50000 nM and > 100000 nM and > 3000 nM,,
CCCCCN(CCCCC)CC(O)c1ccc(Cl)c2ccccc12 (centres undefined),10800 nM,30400 nM,974 nM,14000 nM,5500 nM,20900 nM,5160 nM,12100 nM,30600 nM,3350 nM,18600 nM,6890 nM,20500 nM,10500 nM,33100 nM,14400 nM,32100 nM,38700 nM,20600 nM,18800 nM
CO[C@H]1C=C[C@@]23c4cc5c(cc4CO[C@]2(O)CN(C)[C@H]3C1)OCO5,,> 100000 nM,,> 100000 nM,,> 100000 nM,,,> 100000 nM,,> 100000 nM,,> 100000 nM,,> 100000 nM,,> 100000 nM,> 100000 nM,> 100000 nM,
Cc1ccc(NC(=O)c2sc3nc(C)c(C(O)c4ccccc4)cc3c2N)cc1 (centres undefined),733 nM,> 100000 nM,857 nM,20400 nM,293 nM,909 nM,720 nM,391 nM,16800 nM,450 nM,25900 nM,368 nM,> 57600 nM,375 nM,> 49700 nM,617 nM,> 48700 nM,> 100000 nM,41600 nM,4090 nM
Cn1c2ccccc2c2c3[nH]c(=O)[nH]c(=O)c3c3c4ccccc4n(C)c3c21,2540 nM,47200 nM,3400 nM,14600 nM,> 100000 nM,> 100000 nM,,1510 nM,> 100000 nM,,,1900 nM,> 100000 nM,3730 nM,> 100000 nM,1900 nM,12800 nM,> 100000 nM,,> 100000 nM
C/C(=N\Nc1ccc(Cl)cn1)c1ccccn1,51.6 nM,> 83700 nM,134 nM,33900 nM,35.9 nM,1080 nM,34.4 nM,161 nM,> 100000 nM,45.2 nM,2640 nM,98.9 nM,> 100000 nM,27.3 nM,> 100000 nM,39 nM,9990 nM,,1860 nM,117 nM
CON(C)C(=O)N1N=C(c2cc(F)ccc2F)SC1(CCCN)c1ccccc1 (centres undefined),,,,10200 nM and 15000 nM,18.4 nM and < 10 nM,5380 nM and 2030 nM,3370 nM and 2210 nM,33.6 nM and < 10 nM,11800 nM and 11300 nM,238 nM,17300 nM and 18100 nM,< 10 nM,11600 nM and 11500 nM,11.5 nM and < 10 nM,22400 nM and 21600 nM,20.1 nM and < 10 nM,10700 nM and 5310 nM,21700 nM and 22300 nM,21800 nM and 20500 nM,
COc1cc(NS(=O)(=O)c2ccc(-c3cnc(C4CC4)o3)cc2)ccc1F,1130 nM,95500 nM,579 nM,13100 nM,247 nM,6860 nM,581 nM,765 nM,58900 nM,408 nM,30600 nM,201 nM,22900 nM,326 nM,> 100000 nM,316 nM,11800 nM,33900 nM,24100 nM,2430 nM
C=C1C(=O)O[C@H]2[C@H]1CC/C(COC(=O)c1cc3ccccc3s1)=C\CC[C@@]1(C)O[C@@H]21,1690 nM,3190 nM,1680 nM,3490 nM,1890 nM,5530 nM,1400 nM,1050 nM,2300 nM,1460 nM,2990 nM,389 nM,2020 nM,403 nM,2450 nM,987 nM,2340 nM,3610 nM,2790 nM,1770 nM
COc1ccc(OC)c(C(=O)c2oc3ccc(Br)cc3c2N)c1,,,1710 nM,38100 nM,270 nM,10300 nM,707 nM,604 nM,17300 nM,372 nM,> 100000 nM,289 nM,> 48200 nM,332 nM,24100 nM,321 nM,4140 nM,21800 nM,> 69300 nM,392 nM
COc1ccccc1Cn1cc2c(c1-c1ccccc1)CCc1cnoc1-2,2760 nM,> 100000 nM,1360 nM,9420 nM,1320 nM,8360 nM,3460 nM,2760 nM,12100 nM,1860 nM,> 100000 nM,2330 nM,> 100000 nM,2850 nM,> 100000 nM,398 nM,1990 nM,> 100000 nM,78600 nM,20200 nM
COc1cc2c3c(n(CCCCOC(=O)C(Cl)(Cl)Cl)c(=O)c2cc1OC)-c1cc2c(cc1C3=O)OCO2,> 100000 nM,> 100000 nM,> 100000 nM,> 100000 nM,> 100000 nM,> 100000 nM,14100 nM,20400 nM,> 100000 nM,4610 nM,> 100000 nM,11500 nM,> 100000 nM,10500 nM,> 100000 nM,692 nM,76300 nM,> 100000 nM,> 100000 nM,> 100000 nM
CCN(CC)CCCC(C)Nc1cnc(C(=O)Nc2cccc3ccc(OC)nc23)cn1 (centres undefined),2520 nM,8360 nM,6930 nM,21900 nM,1920 nM,3900 nM,1460 nM,4240 nM,15300 nM,1770 nM,3760 nM,1670 nM,3410 nM,2740 nM,8110 nM,1890 nM,3790 nM,5980 nM,2820 nM,2430 nM
O=c1[nH]c(=O)n(C2OC(CO)C(O)C(O)C2O)cc1F (centres undefined),,> 100000 nM,,> 100000 nM,,> 74500 nM,,,> 100000 nM,,> 100000 nM,,> 100000 nM,,> 100000 nM,,> 100000 nM,> 100000 nM,> 100000 nM,
CN1C(=O)c2ccccc2NC(=O)C12O[C@@H]2c1cccc(O)c1 (some centres undefined),,> 100000 nM,,> 100000 nM,,> 100000 nM,,,> 100000 nM,,> 100000 nM,,> 100000 nM,,> 100000 nM,,> 100000 nM,> 100000 nM,> 100000 nM,
C=C1CC[C@@H]2[C@](C)(COC(C)=O)[C@H](OC(C)=O)CC[C@@]2(C)[C@@H]1CC(Nc1ccc(S(=O)(=O)Nc2ncccn2)cc1)C1=CCOC1=O (some centres undefined),8180 nM,20600 nM,3100 nM,8850 nM,1300 nM,3640 nM,1510 nM,1620 nM,3070 nM,1740 nM,4040 nM,1070 nM,4540 nM,738 nM,3410 nM,498 nM,2070 nM,6070 nM,2970 nM,2340 nM
O=C(/C(=C/c1cccc([N+](=O)[O-])c1)c1ccccc1)c1ccccc1,,,1970 nM,6950 nM,,,2210 nM,4220 nM,14700 nM,3180 nM,10200 nM,3340 nM,13300 nM,2170 nM,27800 nM,1910 nM,3770 nM,18800 nM,5850 nM,4170 nM
COc1ccc(/C=C\c2cc(OC)c(OC)c(OC)c2)cc1OC(=O)NCCN(C)C,,> 58700 nM,,0.65 nM and < 39.3 nM,,3.38 nM,,,43 nM,,> 100000 nM,,> 100000 nM,,,,0.483 nM,,> 63200 nM,
Cc1ccc2c(c1)CN(C(=O)CCC(=O)OCc1ccccc1)c1ccc(C)cc1CN2C(=O)CCC(=O)OCc1ccccc1,,> 100000 nM,,> 100000 nM,,> 100000 nM,,,> 100000 nM,,> 100000 nM,,> 100000 nM,,> 100000 nM,,> 100000 nM,> 100000 nM,,
C=C[C@H]1C[C@@H]2C[C@@H]3[C@H]4C/C=C\C(=O)NCCCC5NC(=O)C(=C(O)/C=C/[C@@H]4CC(=O)[C@H]3[C@@H]2[C@H]1C)C5=O (some centres undefined),1130 nM,2540 nM,218 nM,539 nM,1680 nM,3420 nM,150 nM,191 nM,345 nM,191 nM,374 nM,1240 nM,2800 nM,,,,,369 nM,299 nM,191 nM
CCOC(=O)c1c(C)nc2c(c1N)/C(=C/c1ccc(OC)cc1)C(=O)N2Cc1ccc(F)cc1,270 nM,2260 nM,263 nM,859 nM,140 nM,474 nM,132 nM,279 nM,1120 nM,250 nM,1310 nM,195 nM,1510 nM,109 nM,514 nM,125 nM,296 nM,,301 nM,
